Like-named read-outs stand apart in the source and are kept apart here.
How the values were obtained:
[1] = test system: A2780 cells (epithelial ovarian carcinoma); experiment: MTT cytotoxicity assay, A2780; type: cell-based
Experimental: (§1) The α-lipoic acid (LA) and the functionalized N^∧N-LA ligand were also evaluated for comparison. […]
(§2) Cell lines and culture conditions
(§3) A549, A549R, MCF-7, A2780, HeLa and LO2 cells were obtained from Experimental Animal Center of Sun Yat-Sen University (Guangzhou, China). Cells were routinely cultured in DMEM (Dulbecco’s modified Eagle’s medium, Gibco BRL) or RPMI 1640 (Roswell Park Memorial Institute medium 1640, Gibco BRL) medium containing 10% FBS (fetal bovine serum, Gibco BRL), 100 μg/mL streptomycin, and 100 U/mL penicillin (Gibco BRL). The cells were cultured in tissue culture flasks in a humidified incubator (BB 150 CO2 incubator, Thermo Fisher Scientific, USA), which provided an atmosphere of 5% CO2 and 95% air at a constant temperature of 37 °C. Cisplatin-resistant A549R […]
(§4) cells were cultured in RPMI 1640 with additional cisplatin to maintain the drug resistance.
(§5) Cytotoxicity assay (MTT assay)
(§6) The cytotoxicity of LA, N^N-LA and complexes synthesized towards various cancer cell lines was determined by MTT assay. After plating 5000 cells per well in 96-well plates, the cells were pre-incubated in drug-free media for 24 h at 37 °C to grow to confluence. The complexes were dissolved in DMSO (1%, v/v) just before the experiments, and diluted with fresh media immediately. Then, cells were incubated with a series of different concentrations of the tested complexes for 44 h at 37 °C. After that, 20 μL of MTT solution (5 mg/mL) was added to each well, and the plates were incubated for an additional 4 h. The medium was carefully removed and 150 μL DMSO was added per well. The plates were incubated for 10 min with shaking. The absorbance at 595 nm was measured using a microplate reader (LabServ K3, Part of Thermo Fisher Scientific, USA). Each well was triplicated to gain the mean values. IC 50 values quoted are mean ± SEM. […]

[2] = test system: LO2 cells (human normal liver); experiment: MTT cytotoxicity assay, LO2; type: cell-based
Experimental: as §1, §2, §3, §4, §5, §6

[3] = test system: HeLa cells (human cervical carcinoma); experiment: MTT cytotoxicity assay, HeLa; type: cell-based
Experimental: as §1, §2, §3, §4, §5
(§7) The cytotoxicity of LA, N^N-LA and complexes synthesized towards various cancer cell lines was determined by MTT assay. After plating 5000 cells per well in 96-well plates, the cells were pre-incubated in drug-free media for 24 h at 37 °C to grow to confluence. The complexes were dissolved in DMSO (1%, v/v) just before the experiments, and diluted with fresh media immediately. Then, cells […]
(§8) that, 20 μL of MTT solution (5 mg/mL) was added to each well, and the plates were incubated for an additional 4 h. The medium was carefully removed and 150 μL DMSO was added per well. The plates were incubated for 10 min with shaking. The absorbance at 595 nm was measured using a microplate reader (LabServ K3, Part of Thermo Fisher Scientific, USA). Each well was triplicated to gain the mean values. IC 50 values quoted are mean ± SEM. […]

[4] = test system: A549R cells (cisplatin-resistant A549); experiment: MTT cytotoxicity assay, A549R; type: cell-based, human
Experimental: as §1, §2, §3, §4, §5, §6

[5] = test system: A549 cells (human lung carcinoma); experiment: MTT cytotoxicity assay, A549; type: cell-based
Experimental: as §1, §2, §3, §4, §5, §7, §8

[6] = test system: MCF-7 cells (human breast carcinoma); experiment: MTT cytotoxicity assay, MCF-7; type: cell-based
Experimental: as §1, §2, §3, §4, §5, §6

[7] = reported value; cited from earlier work
A549 cells = conditions: cited from earlier work
[8] = test system: MCF-7 cells (human breast carcinoma); set-up: method as in earlier work; conditions: 24 h incubation; ref 29 (supplementary reference 9); cited from earlier work
[9] = test system: HeLa cells (human cervical carcinoma); set-up: method as in earlier work; conditions: 24 h incubation; ref 29 (supplementary reference 9); cited from earlier work
[10] = test system: A549 cells (human lung carcinoma); set-up: method as in earlier work; conditions: 24 h incubation; ref 29 (supplementary reference 9); cited from earlier work
[11] = test system: MCF-7 cells (human breast carcinoma); experiment: MTT cytotoxicity assay, MCF-7; type: cell-based; conditions: 24 h incubation
tested cancer cell lines = experiment: MTT cytotoxicity assay, summary over the tested cell lines; type: cell-based; conditions: Homo sapiens, 48 h, read-out: IC50 over all tested cancer cell lines
Experimental: as §1, §2, §3, §4, §5
The cytotoxicity of LA, N^N-LA and complexes synthesized towards various cancer cell lines was determined by MTT assay. After plating 5000 cells per well in 96-well plates, the cells were pre-incubated in drug-free media for 24 h at 37 °C to grow to confluence. […] The absorbance at 595 nm was measured using a microplate reader (LabServ K3, Part of Thermo Fisher Scientific, USA). […]

[12] = Homo sapiens, A549, 48 h incubation

SMILES | IC50 ([1]; 48 h incubation) | IC50 ([2]; 48 h incubation) | IC50 ([3]; 48 h incubation) | IC50 ([4]; 48 h incubation) | IC50 ([5]; 48 h incubation) | IC50 ([6]; 48 h incubation) | further results
Cc1ccnc(-c2cc(CNC(=O)CCCCC3CCSS3)ccn2)c1 (stereo not drawn) [N^∧N-LA] | 84.5 ± 4.1 µM | 96 ± 6.7 µM | 67.5 ± 5 µM | > 200 µM | > 200 µM | 139 ± 2.2 µM | 
C(=NC(c1ccccc1)(c1ccccc1)c1ccccc1)c1ccccn1.Cc1c(C)c(C)[c-](C)c1C.F[P-](F)(F)(F)(F)F.[Cl-].[Ir+3] [[(η^5-Cp*)Ir(N^∧N)Cl]PF6, [(η^5-Cp*)Ir(N^∧N)Cl]PF6 (N^∧N = (triphenylmethyl)(pyridine-2-ylmethylene)amine)] |  |  |  |  |  |  | Hydrolysis rate constant [7]: 0.0084 min⁻¹; Cellular uptake in A549 cells (A549 cells): 4.5 ng per 10^6 cells
N.N.[Cl][Pt][Cl] [cis-Pt, cisplatin, reference compound] | 4.32 ± 0.25 µM | 3.97 ± 0.25 µM | 7.59 ± 0.46 µM | 17.9 ± 0.77 µM | 10.5 ± 0.63 µM | 8.7 ± 0.57 µM | IC50 [8]: 31.4 ± 3 µM; IC50 ([3]; 24 h incubation): 17.9 ± 0.47 µM; IC50 ([5]; 24 h incubation): 22.4 ± 1.5 µM; IC50 [9]: 20.2 ± 1.8 µM; IC50 [10]: 38.6 ± 0.9 µM; IC50 [11]: 23.5 ± 0.82 µM
O=C(O)CCCCC1CCSS1 (stereo not drawn) [LA, α-lipoic acid] |  |  |  |  |  |  | IC50 ([1]; Homo sapiens, A2780, 48 h incubation): > 200 µM; IC50 ([2]; Homo sapiens, L02, 48 h incubation): > 200 µM; IC50 ([3]; Homo sapiens, HeLa, 48 h incubation): > 200 µM; IC50 (tested cancer cell lines): > 200 µM; IC50 [4, 12]: > 200 µM; IC50 [5, 12]: > 200 µM; IC50 ([6]; Homo sapiens, MCF7, 48 h incubation): > 200 µM
Cc1ccnc(-c2cc(CN)ccn2)c1.F[P-](F)(F)(F)(F)F.[Ir+3].[c-]1ccccc1-c1ccccn1.[c-]1ccccc1-c1ccccn1 [Ir-NH2, [Ir(C^∧N)2(N^∧N-NH2)]PF6] | 8.08 ± 0.2 µM | 8.97 ± 0.55 µM | 21 ± 0.95 µM | 19 ± 0.59 µM | 11.2 ± 0.65 µM | 11.6 ± 0.48 µM | 

From paper PMC9049077, “Unveiling the anti-cancer mechanism for half-sandwich and cyclometalated Ir(III)-based complexes with functionalized α-lipoic acid” (RSC Advances, 2020)
